Reference: US9409906B2, “Pyrimido[4,5-B]indole derivatives and use thereof in the expansion of hematopoietic stem cells” (UNIVERSITÉ DE MONTRÉAL, priority 2012, dated 2016)
Entries after “also recorded” stand apart in the source; their conditions may differ.

Assays:
[1] = tested on: primary human mobilized CD34+ cells; assay: High throughput screening assay on primary human mobilized CD34+ cells, with secondary screen; type: cell-based
Description: To identify novel putative agonists of HSC self-renewal, we have adapted a high throughput based-screening assay to test a library of small molecule compounds (5,280 low molecular weight compounds) on primary human mobilized CD34+ cells. It is to be understood that the same approach applies to CD34+ cells from the various sources known by a person skilled in the art to isolate CD34+ cells. Mononuclear cells were stained with Mouse antihuman CD34+APC (from BD Pharmingen) and subsequently magnetically labeled with Anti-APC magnetic MicroBeads (from MACS, Miltenyi Biotec). The magnetically labeled cells were retained using AutoMACS column. […]
In a 384-well plate, 2000 CD34^+ cells/well were cultured in 50 μl medium containing 1 μM of test compounds or 0.1% DMSO (vehicle). The proportion of CD34^+CD45RA^− cells was determined at the start of the experiment and after a 7-day incubation. Six out of the 5,280 compounds of different chemical backgrounds initially tested promoted CD34+CD45RA− cell expansion, and seventeen (17) enhanced differentiation as determined by the increase in proportions of CD34−CD45RA+ cells compared to control (DMSO). The six compounds promoting expansion of the CD34+CD45RA− cell population were re-analyzed in a secondary screen. […]

[2] = tested on: Mobilized peripheral blood CD34(+) cells; assay: Reversibility (wash-out) of compound effect on CD34+CD45RA− percentage (FIG. 2); type: cell-based, human; settings: for reversibility of effect on CD34+CD45RA− percentage after wash-out: 7 days with compound, washed, 8 additional days
Procedure: FIG. 2: Effect of compound 1 is reversible. Mobilized peripheral blood CD34(+) cells cultured for 7 days with compound 1 (shown in green) or vehicle (DMSO, shown in blue) were washed and re-plated in fresh media with or without Compound addition (solid vs dashed line respectively). Cells were cultured for 8 additional days and the percentage of CD34+CD45RA− was monitored.
This effect is best shown in FIG. 2 where CD34+ mobilized peripheral blood cells are cultured in the presence of Compound 1 for up to 7 days, at which time the Compound 1 is removed by washing the cells.

[3] = tested on: Mobilized peripheral blood CD34(+) cells; assay: Growth factor (Flt3, SCF, TPO) requirement / mitogen test (FIG. 3); type: cell-based, human
Procedure: FIG. 3: Flt3, SCF, and TPO are required for compound 1 mediated stem cell expansion. Mobilized peripheral blood CD34(+) cells were cultured for 7 days in the presence or absence of the growth factors (Flt3+SCF+TPO).
This indicate that akin to SR1, Compound 1's effect on maintenance of primitive HSC phenotype ex vivo is not due to a mitogenic effect on this population but rather on the prevention of cell differentiation.

[4] = tested on: CD34+ mobilized peripheral blood cells; assay: FACS analysis of differentiation of CD34+ mobilized peripheral blood cells (FIG. 4A); type: cell-based, human
Description: FIG. 4A illustrates the impact of Compound 1 on mobilized peripheral blood cell differentiation. Following a 7 day expansion, a relatively pure (>85% CD34^+) population of mobilized peripheral blood was exposed to control the (DMSO) or Compound 1 or SR1 or Compound 1+SR1.

[5] = tested on: CD34+ mobilized peripheral blood (mPB) cells; assay: Ex vivo expansion of mobilized peripheral blood-derived CD34+ and CD34+CD45RA− cells (FIG. 5A); type: cell-based, human
Description: FIG. 5: A) Compound 1 expands mobilized peripheral blood-derived CD34+ and CD34+CD45RA− cell populations ex vivo. […] This observation was enhanced with the co-treatment with SR1.
[…]. The level of expansion is the same whether cultures are initiated with Compound 1, SR1, Compound 1+SR1, or control DMSO. […] […].

CD34+ mPB cells = assay: Colony-forming units in culture (CFU-C) assay in methylcellulose; type: cell-based, human; settings: 1000 CD34+ mPB cells treated for 10 days
Procedure: The ex vivo functionality of expanded cells was tested using the conventional colony-forming units in culture (CFU-C) assay. Untreated cells or cells incubated with DMSO, positive control or a compound of the invention were plated in methylcellulose medium in conventional conditions. As an example, Compound 1 (Table 1, Example 1) expands the number of multipotent hematopoietic progenitors.

[6] = tested on: CD34+ mPB cells transplanted in NSG mice; assay: Engraftment of cultured CD34+ mPB cells in NSG mice
[7] = tested on: CD34+ CB cells transplanted in NSG mice; assay: Engraftment of cultured CD34+ cord blood cells in NSG mice (FIG. 7); settings: outcome of 5,000 CD34+ CB cells, 7 days culture, 8-weeks post transplantation (FIG. 7A)
Description: These experiments were done in short term cultures i.e. 7 days.

CD34+ cord blood cells = assay: FACS analysis of differentiation of CD34+ cord blood cells (FIG. 4B-4D); settings: FACS / cytological analysis
[8] = outcome of 2,000,000 and 500,000 cells cultured 10 days, 8 weeks post transplantation

Compound: COC(=O)c1ccc2c(c1)[nH]c1ncnc(NCCCN3CCCCC3)c12 [Compound 1, Methyl 4-((3-(piperidin-1-yl)propyl)amino)-9H-pyrimido[4,5-b]indole-7-carboxylate]
- aryl hydrocarbon receptor (AhR) antagonism [1]: not being aryl hydrocarbon receptor (AhR) antagonists
- expansion of MNCs including CD34+ cells ([1]; 7-day incubation): promote the expansion of MNCs including CD34+ cells
- reversibility of effect on CD34+CD45RA− percentage after wash-out [2]: rapidly reversible
- reversibility of effect on CD34+CD45RA− percentage after wash-out ([2]; listed as compound 1): reversible
- compound-free exposure until cells acquired differentiation markers as in control cultures ([2]; after wash-out at day 7): ≤ 2 days
- induction of cell proliferation in the absence of growth factors (Flt3, TPO, SCF) [3]: not able to induce cell proliferation
- CD34+CD45RA− cell count in the absence of any of the growth factors ([3]; 7 days, with or without Flt3+SCF+TPO): lower
- loss of CD34 cell surface expression ([4]; 7 day expansion, optimal levels, vs DMSO control): partly abrogated
- differentiation of CD34+ mobilized peripheral blood cells ([4]; FACS / cytological analysis): prevent cell differentiation; also recorded: reduces differentiation
- CD34+ cell population compared to DMSO treated control cells ([4]; FACS analysis): able to expand CD34+ cell population
- CD34+CD45RA− cells vs SR1 or control cultures ([4]; FIG. 4A, 4B bottom panels): more numerous
- expansion of CD34+CD45RA− cell subpopulation ([5]; 12-days culture): about ten fold
- total cell count increase above the input ([5]; 12-days culture): about 20 fold
- CD34+ population vs DMSO ([5]; FIG. 5A): more than twice
- CD34+CD45RA− population vs DMSO ([5]; FIG. 5A): more than three times
- total cell count vs DMSO ([5]; FIG. 5A): the same
- increase in multilineage GEMM colonies compared to control cells (CD34+ mPB cells): 10 fold
- increase in multilineage GEMM colonies over input cells (CD34+ mPB cells): 5 fold
- human hematopoietic engraftment (human CD45+ cells in BM) ([6]; cells cultured ten days, outcome of 50,000 and 500,000 cells, 13 week post-transplantation): superior to SR1; also recorded: engrafted better than that of DMSO
- engraftment of NSG mice (human CD45) [6, 8]: able to engraft NSG mice
- reconstitution of human myeloid and lymphoid compartments in bone marrow [6, 8]: positive for human CD33+ and CD19+
- human CD45+ engraftment / reconstitution activity [7]: clear effect on reconstitution activity
- human CD45+ engraftment / reconstitution activity ([7]; listed as compound 1): human CD45+ engraftment
- differentiation of CD34+ cord blood cells (CD34+ cord blood cells): reduces differentiation
